These results are taken from patent US11478458B2, “Inhibitors of short-chain dehydrogenase activity for promoting neurogenesis and inhibiting nerve cell death” (CASE WESTERN RESERVE UNIVERSITY, priority 2016, dated 2022).

Each structure is given as a SMILES string. Like-named read-outs stand apart in the source and are kept apart here.

Series [1] can be described thus: stability on incubation with rat liver extracts. The class given is in vitro ADME.
Series [2] is described as follows: toxicity after IP injection into mice.
Series [3] can be described thus: chemical stability in aqueous solutions. Format: physicochemical. The note with it: over broad pH range.
Series [4] in a line: stability on incubation with human liver extracts. Format: in vitro ADME.
The subject of series [5] is PGE2 production by cell lines. In words: PGE2 production by cell lines. Format: cell-based.
The next series deals with T1, recombinant 15-PGDH (Homo sapiens, UniProt P15428).
T1 sequence (P15428 1-266): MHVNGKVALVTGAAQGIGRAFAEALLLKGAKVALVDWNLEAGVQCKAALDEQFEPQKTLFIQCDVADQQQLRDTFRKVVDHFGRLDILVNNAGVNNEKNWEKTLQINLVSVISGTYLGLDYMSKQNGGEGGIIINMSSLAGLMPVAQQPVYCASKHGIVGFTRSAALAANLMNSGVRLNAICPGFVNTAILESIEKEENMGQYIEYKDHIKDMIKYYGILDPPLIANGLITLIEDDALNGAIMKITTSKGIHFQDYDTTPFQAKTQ
In words: inhibition of recombinant 15-PGDH. The class given is biochemical.

The nature of series [6]: stability on incubation with mouse liver extracts. The class given is in vitro ADME.
Series [7] can be described thus: stability on incubation with hepatocyte extracts. The class given is in vitro ADME.
Series [8] in a line: stability on incubation with hepatocyte cell lines. Format: in vitro ADME.
Series [9] relates to mice subjected to blast injury (traumatic brain injury). In words: learning, memory and beam walking after traumatic brain injury (blast injury). Particulars: blast-injured mice. The class given is in vivo. As for the experimental part:
In this study, mice were on day 0 subjected to traumatic brain injury from exposure to an adjacent blast injury in an overpressure chamber. 24 hours later, on study day 1, mice treatment with (+) SW033291 at 10 mg/kg was initiated by daily intraperitoneal injection. A parallel cohort of control mice were initiated on injection with vehicle only. On study day 7, mice commenced 4 days of daily training to learn the location of a cup on a table with 20 holes equally spaced around the perimeter, in the standard Barnes maze task. […] Cohorts that are compared are sham-injured mice, mice subjected to blast injury and treated with vehicle, mice subjected to blast injury and treated with the neuroprotective agent P7C3-A20, and mice subjected to blast injury and treated with (+) SW033291. Quicker time in finding the cup on day 4 is reflective of learning.
On study day 11, mice were returned to the Barnes maze with the escape cup removed, and memory was assessed by measuring the time mice spent within 5 cm of the cup's prior location.
On study day 12-14, mice were further trained to traverse a ½ inch cylindrical rod to reach and enter a black box. On day 14, the mice performance was videotaped and counts were made of the number of times a mouse foot slipped from the beam. […] In this assay, the worst performance is recorded for mice exposed to blast-injury receiving vehicle injections.

Series [10] has as its system PGE2 levels in rat brain cortex. Briefly: PGE2 levels in rat brain cortex after IP injection. Format: in vivo. As to the method:
FIG. 7 illustrates a graph showing PGE2 levels in rat brain cortex following IP injection of (+) SW033291 at 2.5, 5.0, and 10.0 mg/kg. PGE2 levels are elevated in rat brain cortex 30, 120, and 180 minutes following a single IP injection of (+)-SW033291 at the noted doses.

The subject of series [11] is prostaglandin E2 (PGE2) in brain. In words: PGE2 in 3 regions of the mouse brain after intraperitoneal injection. Particulars: 2.5 mg/kg IP, 3 hours after injection; cerebrum, cerebellum, medulla/pons; 3 mice. The class given is in vivo. From the text: Brain regions sampled are #1, the cerebrum, #2, the cerebellum, and #3, medulla/pons. Basal PGE2 is highest in the cerebrum and medulla/pons, and lowest in the cerebellum.

The next series has as its target T2, 15-PGDH (Mus musculus, UniProt Q8VCC1).
T2 construct: from tissue; host or cells: mouse brain (cortex, cerebellum, pons and medulla)
T2 sequence (Q8VCC1 1-269): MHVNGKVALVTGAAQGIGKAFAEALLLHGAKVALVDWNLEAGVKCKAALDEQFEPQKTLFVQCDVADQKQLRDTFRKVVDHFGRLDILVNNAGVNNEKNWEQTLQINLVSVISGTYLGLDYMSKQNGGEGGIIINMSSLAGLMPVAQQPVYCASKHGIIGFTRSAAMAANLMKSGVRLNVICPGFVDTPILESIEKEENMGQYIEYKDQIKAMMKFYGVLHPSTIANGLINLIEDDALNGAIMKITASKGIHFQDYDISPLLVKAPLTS
In words: 15-PGDH activity in mouse brain regions after IP injection. Format: in vivo. Particulars: 2.5 mpk IP. As to the method:
FIGS. 6(A-C) illustrate graphs showing 15-PGDH activity in the cortex (A), cerebellum (B), and pons and medulla (C) of mouse brain following IP injection of 15-PGDH inhibitor (+) SW033291 at 2.5 mpk. 15-PGDH activity was measured from the 3 regions of mouse brain using a 15-tritiated PGE2 substrate. A coupled enzymatic assay uses 15-PGDH and glutamate dehydrogenase to transfer tritium from PGE2 onto glutamate. Brain tissues were harvested for assay at the times shown following IP injection of 15-PGDH inhibitor (+)-SW033291 at 2.5 mpk.

Series [12] in a line: pharmacokinetics in plasma and brain after intraperitoneal injection. The class given is in vivo. Particulars: mouse, 25 mg/kg intraperitoneal, female C57BL/7 mice, read-out: total drug exposure (area under the curve) in brain relative to plasma.
For series [13] the following is noted: cited from earlier work.
The target in a further series is T3, EP2 receptors (Homo sapiens, UniProt P43116).
T3 construct: host or cells: neurons in vitro
T3 sequence (P43116 whole entry): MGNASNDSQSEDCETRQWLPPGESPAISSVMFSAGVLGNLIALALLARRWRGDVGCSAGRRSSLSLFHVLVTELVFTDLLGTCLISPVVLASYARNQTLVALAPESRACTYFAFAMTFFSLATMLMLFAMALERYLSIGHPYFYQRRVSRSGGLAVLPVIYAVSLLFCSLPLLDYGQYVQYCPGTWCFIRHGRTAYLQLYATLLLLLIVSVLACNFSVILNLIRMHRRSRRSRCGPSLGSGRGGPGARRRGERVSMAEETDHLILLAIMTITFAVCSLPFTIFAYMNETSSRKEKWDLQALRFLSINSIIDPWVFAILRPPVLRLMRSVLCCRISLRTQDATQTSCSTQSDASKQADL
Particulars: in vitro; cited from earlier work.

Regarding `CCCC[S+]([O-])c1sc2nc(-c3nccs3)cc(-c3cnc(C)n3C)c2c1N` (centres unmarked) [formula (X)], the “chemical stability when incubated with rat liver extracts” value in series [1] is reported as “chemically stable”. In addition, the “immediate toxicity over 24 hours” value in series [2] (IP into mice at 50 mg/kg body weight) is given as “no immediate toxicity”. In [3], the “chemical stability in aqueous solutions” value is reported as “chemically stable”. The “chemical stability when incubated with human liver extracts” value in [4] is reported as “chemically stable”. For the same compound, the “concentration at which PGE2 production by cell lines is increased” value in series [5] is recorded as 20 nM. Moreover, the “concentration at which recombinant 15-PGDH is inhibited” value at recombinant 15-PGDH is 3 nM. Besides, in series [6], the “chemical stability when incubated with mouse liver extracts” value is recorded as “chemically stable”.

`CCCC[S+]([O-])c1sc2nc(-c3cccs3)cc(-c3ccccc3)c2c1N` (centres unmarked) [formula (IX)]: the “chemical stability when incubated with hepatocyte extracts” value in [7] is on record as “chemically stable”. Further, in series [2] (IP into mice at 0.3 μmole/per mouse twice daily for 21 days), the “toxicity on repeated dosing” value was “no toxicity”. For the same compound, the “immediate toxicity over 24 hours” value in series [2] (IP into mice at 0.6 μmole/per mouse) and in series [2] (IP into mice at 1.2 μmole/per mouse) was “no immediate toxicity” in each case. For the same compound, the “chemical stability in aqueous solutions” value in series [3] is given as “chemically stable”. In addition, the “chemical stability when incubated with hepatocyte cell lines” value in series [8] is “chemically stable”. Moreover, the “PGE2 production by cell lines” value in [5] is reported as “increase PGE2 production”.

As for `CCCC[S+]([O-])c1sc2nc(-c3cccs3)cc(-c3ccccc3)c2c1N` (single isomer, unassigned; (+)) [(+) SW033291], the “Barnes maze learning (time to locate the cup, training days 1-4)” value in series [9] (daily IP treatment from 24 hours after injury, study days 7-10) is listed as “appear similar to control mice that received only sham injury”. Further, the “Barnes maze memory (time within 5 cm of the cup's prior location)” value in series [9] (study day 11) is “behaved similarly to control mice that received only sham injury”. The “foot slips from the beam” value in series [9] (study day 14) is on record as “intermediate performance”. The “PGE2 levels in rat brain cortex” value was “elevated” in [10] (30, 120 and 180 minutes after single IP injection at 2.5, 5.0, 10.0 mg/kg); “double” in series [10] (120 minutes after dosing at 10 mpk IP); “double” in [10] (180 minutes after dosing at 5 mpk IP). Further, the “brain PGE2 levels versus vehicle” value in series [11] was “roughly double”. The “15-PGDH enzyme activity in brain (cortex, cerebellum, pons and medulla)” value at 15-PGDH was “readily inhibited”.

Take `CCCC[S+]([O-])c1sc2nc(-c3nccs3)cc(-c3cnc(C)n3C)c2c1N` (single isomer, unassigned; (+)) [(+) SW209415]: the Kp in series [12] was determined as 1.56.

For `CCCCC[C@H](O)/C=C/[C@H]1[C@H](O)CC(=O)[C@@H]1C/C=C\CCCC(=O)O` [PGE2, prostaglandin E2], the half-life result is “less than 1 min” in series [13] (following intravenous injection) and “approximately 30 sec” in [13] (in the circulatory system).

Turning to `CCCC1([C@H](O)C/C=C/[C@H]2[C@H](O)CC(=O)[C@@H]2CCCCCCC(=O)OC)CCC1` [butaprost], on EP2 receptors, the “protection of neurons from amyloid β-peptide neurotoxicity” value is reported as “protected neurons”.
